From US20250195521A1 (Revolution Medicines, Inc., priority 2020, published 2025)

test system: K-Ras G12C (NCI-H358 cells); assay: Potency assay: pERK in NCI-H358 cells; format: cell-based, human; conditions: Homo sapiens, NCI-H358, 4 h, read-out: pERK EC50 (H358 KRAS G12C)
Method: The purpose of this assay is to measure the ability of test compounds to inhibit K-Ras in cells. […] This procedure measures a decrease in cellular pERK in response to test compounds. The procedure described below in NCI-H358 cells is applicable to K-Ras G12C.
Note: This protocol may be executed substituting other cell lines to characterize inhibitors of other RAS variants, including, for example, AsPC-1 (K-Ras G12D), Capan-1 (K-Ras G12V), or NCI-H1355 (K-Ras G13C).
NCI-H358 cells were grown and maintained using media and procedures recommended by the ATCC. On the day prior to compound addition, cells were plated in 384-well cell culture plates (40 μl/well) and grown overnight in a 37° C., 5% CO2 incubator. Test compounds were prepared in 10, 3-fold dilutions in DMSO, with a high concentration of 10 mM. On the day of assay, 40 nL of test compound was added to each well of cell culture plate using an Echo550 liquid handler (LabCyte®). Concentrations of test compound were tested in duplicate. After compound addition, cells were incubated 4 hours at 37° C., 5% CO2. Following incubation, culture medium was removed and cells were washed once with phosphate buffered saline.
In some experiments, cellular pERK level was determined using the AlphaLISA SureFire Ultra p-ERK1/2 Assay Kit (PerkinElmer). Cells were lysed in 25 μL lysis buffer, with shaking at 600 RPM at room temperature. […] After a 2-hour incubation in the dark, 5 μL donor mix was added, plate was sealed, and incubated 2 hours at room temperature. Signal was read on an Envision plate reader (PerkinElmer) using standard AlphaLISA settings. Analysis of raw data was carried out in Excel (Microsoft) and Prism (GraphPad). Signal was plotted vs. the decadal logarithm of compound concentration, and IC50 was determined by fitting a 4-parameter sigmoidal concentration response model.
In other experiments, cellular pERK was determined by In-Cell Western. […] Fixed cells were washed 4 times for 5 minutes with TBS containing 0.1% Triton X-100 (TBST) and then blocked with 100 μL Odyssey blocking buffer (LI-COR) for 60 minutes at room temperature. Primary antibody (PERK, CST-4370, Cell Signaling Technology) was diluted 1:200 in blocking buffer, and 50 μL was added to each well and incubated overnight at 4° C. Cells were washed 4 times for 5 minutes with TBST. Secondary antibody (IR-800CW rabbit, LI-COR, diluted 1:800) and DNA stain DRAQ5 (LI-COR, diluted 1:2000) were added and incubated 1-2 hours at room temperature. Cells were washed 4 times for 5 minutes with TBST. Plates were scanned on a Li—COR Odyssey CLx Imager. Analysis of raw data was carried out in Excel (Microsoft) and Prism (GraphPad). Signal was plotted vs. the decadal logarithm of compound concentration, and IC50 was determined by fitting a 4-parameter sigmoidal concentration response model.

| Structure (SMILES) | EC50 [µM] |
| --- | --- |
| C=CC(=O)N1CC[C@H](C(=O)N(C)[C@H](C(=O)N[C@H]2Cc3cc(cc(O)c3F)-c3ccc4c(c3)c(c(-c3c(CCOC)cccc3OC)n4CC)CC(C)(C)COC(=O)[C@@H]3CCCN(N3)C2=O)C(C)C)C1 [Compound A9] | < 5 |
| CCn1c(-c2cnccc2COC)c2c3cc(ccc31)-c1cc(O)cc(c1)C[C@H](NC(=O)[C@H](C(C)C)N(C)C(=O)[C@H]1CCN(C(=O)OC)C1)C(=O)N1CCC[C@H](N1)C(=O)OCC(C)(C)C2 [Compound A11, methyl (3S)-3-{[(1S)-1-{[(8S,14S)-22-ethyl-4-hydroxy-21-[4-(methoxymethyl)pyridin-3-yl]-18,18-dimethyl-9,15-dioxo-16-oxa-10,22,28-triazapentacyclo [18.5.2.1^2,6.1^10,14.0^23,27]nonacosa-1 (26),2,4,6 (29),20,23 (27),24-heptaen-8-yl]carbamoyl}-2-methylpropyl](methyl)carbamoyl}pyrrolidine-1-carboxylate] | < 5 |
| C=CC(=O)N1CC[C@H](C(=O)N(C)[C@H](C(=O)N[C@H]2Cc3cc(O)cc(c3)-c3ccc4c(c3)c(c(-c3ncccc3[C@@H](C)OC)n4CC)CC(C)(C)COC(=O)[C@@H]3CCCN(N3)C2=O)C(C)C)C1 [Compound A29] | < 5 |
| C=CC(=O)N1CC[C@H](C(=O)N(C)[C@H](C(=O)N[C@H]2Cc3cc(OC(=O)N(C)CC(=O)O)cc(c3)-c3ccc4c(c3)c(c(-c3ccccc3CCOC)n4CC)CC(C)(C)COC(=O)[C@@H]3CCCN(N3)C2=O)C(C)C)C1 [Compound A78] | < 5 |

same assay, conditions: Homo sapiens; NCI-H358 cells, 4 hours; read-out: pERK EC50 (H358 KRAS G12C)

| Structure (SMILES) | EC50 [µM] |
| --- | --- |
| CCn1c(-c2cccnc2[C@H](C)OC)c2c3cc(ccc31)-c1cc(O)cc(c1)C[C@H](NC(=O)[C@H](C(C)C)N(C)C(=O)[C@H]1CCC[C@H]1N)C(=O)N1CCC[C@H](N1)C(=O)OCC(C)(C)C2 (atropisomer, axis not shown) [Compound A131] | < 5 |
| CCn1c(-c2cccnc2[C@H](C)OC)c2c3cc(ccc31)-c1csc(n1)C[C@H](NC(=O)[C@H](C(C)C)N(C)C(=O)N1CC(C(C)(C)OC)C1)C(=O)N1CCC[C@H](N1)C(=O)OCC(C)(C)C2 (atropisomer, axis not shown) [Compound A614] | < 5 |
| CCn1c(-c2cnccc2COC)c2c3cc(ccc31)-c1cc(O)cc(c1)C[C@H](NC(=O)[C@H](C(C)C)N(C)C(=O)[C@H]1CCNC1)C(=O)N1CCC[C@H](N1)C(=O)OCC(C)(C)C2 [Compound A10] | < 5 |
| C=CC(=O)N1CC[C@H](C(=O)N(C)[C@H](C(=O)N[C@H]2Cc3cc(O)cc(c3)-c3ccc4c(c3)c(c(-c3ccccc3CCOC)n4C(C)(C)C#N)CC(C)(C)COC(=O)[C@@H]3CCCN(N3)C2=O)C(C)C)C1 [Compound A12] | < 5 |
| CCn1c(-c2cnccc2COC)c2c3cc(ccc31)-c1cc(O)cc(c1)C[C@H](NC(=O)[C@H](C(C)C)N(C)C(=O)[C@H]1CCN(C)C1)C(=O)N1CCC[C@H](N1)C(=O)OCC(C)(C)C2 [Compound A27, (2S)—N-[(8S,14S)-22-ethyl-4-hydroxy-21-[4-(methoxymethyl)pyridin-3-yl]-18,18-dimethyl-9,15-dioxo-16-oxa-10,22,28-triazapentacyclo [18.5.2.1^2,6.1^10,14.0^23,27]nonacosa-1 (26),2,4,6 (29),20,23 (27),24-heptaen-8-yl]-3-methyl-2-{N-methyl-1-[(3S)-1-methylpyrrolidin-3-yl]formamido}butanamide] | < 5 |
| CCn1c(-c2cccnc2COC)c2c3cc(ccc31)-c1cc(O)cc(c1)C[C@H](NC(=O)[C@H](C(C)C)N(C)C(=O)[C@H]1CCNC1)C(=O)N1CCC[C@H](N1)C(=O)OCC(C)(C)C2 [Compound A32] | < 5 |
| CCn1c(-c2cnccc2COC)c2c3cc(ccc31)-c1cc(O)cc(c1)C[C@H](NC(=O)[C@H](C(C)C)N(C)C(=O)[C@H]1CCN(S(=O)(=O)N3CC(N)C3)C1)C(=O)N1CCC[C@H](N1)C(=O)OCC(C)(C)C2 [Compound A35] | < 5 |
| CCn1c(-c2cnccc2COC)c2c3cc(ccc31)-c1cc(O)cc(c1)C[C@H](NC(=O)[C@H](C(C)C)N(C)C(=O)[C@H]1CCN(S(=O)(=O)N3CC(O)C3)C1)C(=O)N1CCC[C@H](N1)C(=O)OCC(C)(C)C2 [Compound A37, (2S)—N-[(8S,14S)-22-ethyl-4-hydroxy-21-[4-(methoxymethyl)pyridin-3-yl]-18,18-dimethyl-9,15-dioxo-16-oxa-10,22,28-triazapentacyclo [18.5.2.1^2,6.1^10,14.0^23,27]nonacosa-1 (26),2,4,6 (29),20,23 (27),24-heptaen-8-yl]-2-{1-[(3S)-1-[(3-hydroxyazetidin-1-yl)sulfonyl]pyrrolidin-3-yl]-N-methylformamido}-3-methylbutanamide] | < 5 |
| CCn1c(-c2cnccc2COC)c2c3cc(ccc31)-c1cc(O)cc(c1)C[C@H](NC(=O)[C@H](C(C)C)N(C)C(=O)CO)C(=O)N1CCC[C@H](N1)C(=O)OCC(C)(C)C2 [Compound A43, (2S)—N-[(8S,14S)-22-ethyl-4-hydroxy-21-[4-(methoxymethyl)pyridin-3-yl]-18,18-dimethyl-9,15-dioxo-16-oxa-10,22,28-triazapentacyclo [18.5.2.1^2,6.1^10,14.0^23,27]nonacosa-1 (26), 2,4,6 (29),20,23 (27),24-heptaen-8-yl]-2-(2-hydroxy-N-methylacetamido)-3-methylbutanamide] | < 5 |
| CCn1c(-c2cnccc2COC)c2c3cc(ccc31)-c1cc(O)cc(c1)C[C@H](NC(=O)[C@H](C(C)C)N1CCCCC1=O)C(=O)N1CCC[C@H](N1)C(=O)OCC(C)(C)C2 [Compound A44] | < 5 |
| CCn1c(-c2cnccc2COC)c2c3cc(ccc31)-c1cc(O)cc(c1)C[C@H](NC(=O)[C@H](C(C)C)N(C)S(C)(=O)=O)C(=O)N1CCC[C@H](N1)C(=O)OCC(C)(C)C2 [Compound A57, (2S)—N-[(8S,14S)-22-ethyl-4-hydroxy-21-[4-(methoxymethyl)pyridin-3-yl]-18,18-dimethyl-9,15-dioxo-16-oxa-10,22,28-triazapentacyclo [18.5.2.1^2,6.1^10,14.0^23,27]nonacosa-1 (26),2,4,6 (29),20,23 (27),24-heptaen-8-yl]-3-methyl-2-(N-methylmethanesulfonamido) butanamide] | < 5 |
| CCn1c(-c2cccnc2[C@H](C)OC)c2c3cc(ccc31)-c1cccc(c1)C[C@H](NC(=O)[C@H](C(C)C)N(C)C(=O)[C@H]1CCN(C(C)=O)C1)C(=O)N1CCC[C@H](N1)C(=O)OCC(C)(C)C2 [Compound A60] | < 5 |
| CCn1c(-c2cnccc2COC)c2c3cc(ccc31)-c1cc(O)cc(c1)C[C@H](NC(=O)[C@H]([C@@H](C)OC)N(C)C(C)=O)C(=O)N1CCC[C@H](N1)C(=O)OCC(C)(C)C2 [Compound A76] | < 5 |
| CCn1c(-c2cnccc2COC)c2c3cc(ccc31)-c1cc(O)cc(c1)C[C@H](NC(=O)[C@H](C(C)C)N(C)C(=O)[C@@H]1CCOC1)C(=O)N1CCC[C@H](N1)C(=O)OCC(C)(C)C2 [Compound A94] | < 5 |
| CCn1c(-c2cnccc2COC)c2c3cc(ccc31)-c1cc(O)cc(c1)C[C@H](NC(=O)[C@H](C(C)C)N(C)C(=O)OC1CN(C)C1)C(=O)N1CCC[C@H](N1)C(=O)OCC(C)(C)C2 [Compound A101] | < 5 |
| CCn1c(-c2cccnc2[C@H](C)OC)c2c3cc(ccc31)-c1cccc(c1)C[C@H](NC(=O)[C@H](C(C)C)N(C)C(=O)[C@H]1CCN(C(=O)CN)C1)C(=O)N1CCC[C@H](N1)C(=O)OCC(C)(C)C2 [Compound A105] | < 5 |
| CCn1c(-c2cccnc2[C@H](C)OC)c2c3cc(ccc31)-c1csc(n1)C[C@H](NC(=O)[C@H](C(C)C)N(C)C(=O)[C@H]1CCN(C)C1)C(=O)N1CCC[C@H](N1)C(=O)OCC(C)(C)C2 [Compound A108] | < 5 |
| CCn1c(-c2cccnc2[C@H](C)OC)c2c3cc(ccc31)-c1cc(O)cc(c1)C[C@H](NC(=O)[C@H](C(C)C)N(C)C(=O)[C@H]1CCN(CCO)C1)C(=O)N1CCC[C@H](N1)C(=O)OCC(C)(C)C2 [Compound A111] | < 5 |

same assay, conditions: read-out: pERK EC50 (H358 KRAS G12C); NCI-H358 cells, 4 hours

| Structure (SMILES) | EC50 [µM] |
| --- | --- |
| C=CC(=O)N1CC[C@H](C(=O)N(C)[C@H](C(=O)N[C@H]2Cc3cc(N)cc(c3)-c3ccc4c(c3)c(c(-c3ccccc3COC)n4CC)CC(C)(C)COC(=O)[C@@H]3CCCN(N3)C2=O)C(C)C)C1 [Compound A42] | < 5 |
